Source: patent US20190241535A1, “3-SUBSTITUTED CARBONYL-NAPHTHO[2,3-B]FURANE DERIVATIVE OR PHARMACEUTICALLY ACCEPTABLE SALT THEREOF” (Boston Biomedical, Inc., priority 2014, published 2019)

Assays:
Experiment in all cases: Test 2: inhibition of forming cancer cell sphere (Sphere IC50)
Format in all cases: cell-based
Conditions in all cases: Homo sapiens, 96 h, ultra-low attachment plate, serum-free sphere medium, 4 days, CellTiter-Glo
[1] = test system: FaDu cell
Method: (§1) HCT-116 cell, HT-29 cell, and FaDu cell were obtained from the American Type Culture Collection (ATCC). HCT-116 cell and HT-29 cell were cultivated at 37° C. in the presence of 5% CO2 using McCoy's 5a medium containing 10% fetal bovine serum (FBS), and 1% penicillin/streptomycin; and FaDu cell was cultivated at 37° C. in the presence of 5% CO2 using MEM containing 10% FBS, 1% non-essential amino acid, 1% sodium pyruvate, and 1% penicillin/streptomycin. Each of HCT-116 cell, HT-29 cell, and FaDu cell was seeded on 384 Wells Black Clear Bottom Ultra-Low Attachment Microplate (Corning Cat. No. 3827) in 350-800 cells/well, with DMEM/F12 medium containing 2% B27 supplement (GIBCO), 20 ng/mL epidermal growth factor (EGF) (peprotech), 10 ng/mL basic fibroblast growth factor (bFGF) (peprotech), 5 μg/mL insulin (Sigma), and 1% penicillin/streptomycin. Each test sample was added thereto to adjust the final concentration thereof in DMSO to 0.1% and the test wells were incubated for 4 days. And then, the viable cell count of each sample was measured using CellTiter-Glo® Luminescent Cell Viability Assay (Promega), and the concentration to inhibit the cell growth in each test sample by 50% was calculated (Sphere IC50 Value;μM).

[2] = test system: HCT-116 cell
Method: as §1

[3] = test system: HT-29 cell
Method: as §1

IC50 [1]: 500 nM | IC50 [2]: 530 nM | IC50 [3]: 640 nM
SMILES: CN1CCN(C(=O)c2c(C(F)(F)F)oc3c2C(=O)c2ccccc2C3=O)CC1 [Example 8, 3-(4-Methylpiperazine-1-carbonyl)-2-(trifluoromethyl)naphtho[2,3-b]furan-4,9-dione]
